Measured values published in patent publication US11697648B2, “Fused pyrimidine pyridinone compounds as JAK inhibitors” (THERAVANCE BIOPHARMA R&D IP, LLC, priority 2019, dated 2023).

Legend:
[1] = test system: IL-2 stimulated STAT5 phosphorylation in Tall-1 human T cell line (JAK3); assay: Cellular JAK3 potency assay: inhibition of IL-2 stimulated pSTAT5 in Tall-1 T cells; format: cell-based; settings: IL-2 stimulated pSTAT5, Tall-1 T cells
Outline: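 Tall-1 cells, 45,000 per well, preincubated 1 hour with compound at 37 °C, then stimulated 30 minutes with IL-2 at 300 ng/ml final. pSTAT5 (Tyr694/699) in lysates quantified by AlphaLISA SureFire Ultra. pIC50 derived from inhibition curves, given as mean with SD.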

[2] = molecular target: JAK3 (Homo sapiens (Human), UniProt P52333); assay: Biochemical JAK3 kinase assay (LanthaScreen); settings: for JAK3 (pKi)-JAK1 (pKi): selectivity JAK3 over JAK1, difference of pKi
Outline: (§1)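 GST-JAK + GFP-STAT1 peptide, HEPES pH 7.5/MgCl2/EGTA/Brij-35 buffer; cpd preincubation 1 h RT; ATP start, 1 h RT; stop with 10 mM EDTA + 2 nM Tb-anti-pSTAT1; TR-FRET 520/495. 4-parameter IC50 → pKi (Cheng-Prusoff).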

[3] = molecular target: JAK2 (Homo sapiens (Human), UniProt O60674); assay: Biochemical JAK2 kinase assay (LanthaScreen)
Outline: as §1

[4] = Colon and plasma mouse pharmacokinetics; format: in vivo; settings: mouse, colon tissue / plasma; male Balb/c mice, 10 mg/kg PO; ratio of the colon AUC to the plasma AUC
Procedure: Assay 5: Colon and Plasma Mouse Pharmacokinetics
To 6 male Balb/c mice was administered 10 mg/kg of compound in 1% HPMC+0.1% Tween-80 by PO administration. At 0.5, 2 and 6 hours after dose administration, animals were anesthetized, and terminal blood samples were collected by cardiac puncture, followed by collection of colon contents and colon tissue.
Blood samples were collected into K2EDTA and stored on wet ice until processed to plasma by centrifugation (12000 rpm at 4° C.). Plasma samples were transferred to cluster tubes and placed on dry ice prior to freezer storage. The colon contents from each animal were collected at each terminal blood collection time point. The colon tissues were flushed with saline and patted dry. The colon and colon content tissues were homogenized using sterile water containing 0.1% formic acid 9:1 (water:tissue, v/w). The homogenized tissues and colon contents were transferred to cluster tubes and placed on dry ice prior to freezer storage. All samples were analyzed using LC/MS/MS against analytical standards.
The composite pharmacokinetic parameters of the compounds were determined by non-compartmental analysis using Phoenix WinNonlin Version 6 (Certara, St. Louis, Mo.) and using mean values from 2 animals/time point. For plasma concentrations below the quantification limit (BQL), the lowest concentration measurable or the BLOQ (below limit of quantification) was used.
A colon to plasma ratio was determined as the ratio of the colon AUC to the plasma AUC.

[5] = molecular target: Tyk2 (Homo sapiens (Human), UniProt P29597); assay: Biochemical Tyk2 kinase assay (LanthaScreen)
Outline: as §1

[6] = molecular target: JAK1 (Homo sapiens (Human), UniProt P23458); assay: Biochemical JAK1 kinase assay (LanthaScreen)
Outline: as §1

[7] = test system: Caco-2 cell monolayers; assay: Caco-2 permeation assay; format: in vitro ADME; settings: 5 μM, A-B direction, with Verapamil (25 μM)
Outline: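 Compounds tested at 5 μM in duplicate across Caco-2 monolayers, apical-to-basolateral, with 25 μM verapamil to block P-gp, at 37° C., 5% CO2. Apical and basal samples taken at 0 and 120 min, analysed by LC-MS/MS; Papp (cm/sec) calculated as dQ/(dt×Area×concentration).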

Sequence of JAK3 (P52333 whole entry): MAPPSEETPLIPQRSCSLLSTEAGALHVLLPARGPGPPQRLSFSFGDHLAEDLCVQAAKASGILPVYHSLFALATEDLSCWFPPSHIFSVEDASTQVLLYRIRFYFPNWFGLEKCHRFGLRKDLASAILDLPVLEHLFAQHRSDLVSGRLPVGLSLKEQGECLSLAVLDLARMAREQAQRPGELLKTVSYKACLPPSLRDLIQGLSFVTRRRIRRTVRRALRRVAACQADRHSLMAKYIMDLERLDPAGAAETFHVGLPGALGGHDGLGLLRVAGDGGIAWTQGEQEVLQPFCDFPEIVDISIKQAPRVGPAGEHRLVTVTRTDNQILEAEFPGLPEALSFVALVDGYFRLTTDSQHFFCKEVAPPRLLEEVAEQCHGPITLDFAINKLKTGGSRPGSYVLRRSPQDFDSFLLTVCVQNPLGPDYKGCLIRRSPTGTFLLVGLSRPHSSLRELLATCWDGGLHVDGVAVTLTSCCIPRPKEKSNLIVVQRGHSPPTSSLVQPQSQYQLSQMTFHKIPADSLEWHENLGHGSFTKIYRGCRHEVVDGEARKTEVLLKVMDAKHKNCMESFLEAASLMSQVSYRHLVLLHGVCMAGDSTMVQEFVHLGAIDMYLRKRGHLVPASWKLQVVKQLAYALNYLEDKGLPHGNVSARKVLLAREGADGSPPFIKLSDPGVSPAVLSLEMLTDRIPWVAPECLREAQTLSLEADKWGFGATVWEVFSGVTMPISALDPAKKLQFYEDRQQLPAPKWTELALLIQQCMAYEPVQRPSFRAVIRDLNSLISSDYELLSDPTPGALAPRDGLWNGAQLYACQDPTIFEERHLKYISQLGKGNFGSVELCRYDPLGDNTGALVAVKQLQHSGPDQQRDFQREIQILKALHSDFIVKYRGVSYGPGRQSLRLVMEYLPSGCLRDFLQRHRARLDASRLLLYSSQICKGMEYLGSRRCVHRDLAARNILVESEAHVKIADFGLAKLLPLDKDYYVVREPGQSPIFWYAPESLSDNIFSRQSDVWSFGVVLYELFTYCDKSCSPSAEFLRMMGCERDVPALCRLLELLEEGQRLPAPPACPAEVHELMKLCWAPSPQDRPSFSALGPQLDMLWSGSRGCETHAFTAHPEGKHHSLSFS
Sequence of JAK2 (O60674 whole entry): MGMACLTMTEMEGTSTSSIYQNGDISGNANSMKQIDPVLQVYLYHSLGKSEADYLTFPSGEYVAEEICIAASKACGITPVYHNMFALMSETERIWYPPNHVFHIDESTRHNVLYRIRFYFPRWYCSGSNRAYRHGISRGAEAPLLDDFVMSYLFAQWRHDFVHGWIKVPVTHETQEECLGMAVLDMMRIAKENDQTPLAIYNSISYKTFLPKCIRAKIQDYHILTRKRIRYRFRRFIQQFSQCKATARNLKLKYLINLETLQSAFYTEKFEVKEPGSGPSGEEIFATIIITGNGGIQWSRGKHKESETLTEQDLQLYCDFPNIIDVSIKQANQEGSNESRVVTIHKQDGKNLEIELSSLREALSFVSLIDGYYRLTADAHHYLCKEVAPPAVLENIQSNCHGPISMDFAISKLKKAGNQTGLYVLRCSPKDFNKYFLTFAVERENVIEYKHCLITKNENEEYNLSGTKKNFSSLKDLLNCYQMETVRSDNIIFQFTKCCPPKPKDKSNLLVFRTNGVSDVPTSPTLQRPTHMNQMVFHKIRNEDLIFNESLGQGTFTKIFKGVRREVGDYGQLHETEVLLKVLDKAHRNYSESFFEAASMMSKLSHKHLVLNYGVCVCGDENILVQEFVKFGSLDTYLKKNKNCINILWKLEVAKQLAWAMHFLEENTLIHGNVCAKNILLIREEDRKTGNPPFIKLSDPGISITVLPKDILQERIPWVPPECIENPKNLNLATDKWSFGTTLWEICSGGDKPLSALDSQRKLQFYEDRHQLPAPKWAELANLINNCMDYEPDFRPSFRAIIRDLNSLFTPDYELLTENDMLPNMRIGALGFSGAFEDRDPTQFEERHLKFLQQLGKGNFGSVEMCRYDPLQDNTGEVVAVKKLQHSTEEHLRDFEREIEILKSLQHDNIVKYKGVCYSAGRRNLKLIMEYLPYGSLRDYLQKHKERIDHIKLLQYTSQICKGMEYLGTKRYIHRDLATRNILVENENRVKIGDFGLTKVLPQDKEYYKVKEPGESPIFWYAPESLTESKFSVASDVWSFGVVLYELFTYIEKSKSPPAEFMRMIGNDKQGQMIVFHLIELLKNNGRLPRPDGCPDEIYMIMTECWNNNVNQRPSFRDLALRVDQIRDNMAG
Sequence of Tyk2 (P29597 whole entry): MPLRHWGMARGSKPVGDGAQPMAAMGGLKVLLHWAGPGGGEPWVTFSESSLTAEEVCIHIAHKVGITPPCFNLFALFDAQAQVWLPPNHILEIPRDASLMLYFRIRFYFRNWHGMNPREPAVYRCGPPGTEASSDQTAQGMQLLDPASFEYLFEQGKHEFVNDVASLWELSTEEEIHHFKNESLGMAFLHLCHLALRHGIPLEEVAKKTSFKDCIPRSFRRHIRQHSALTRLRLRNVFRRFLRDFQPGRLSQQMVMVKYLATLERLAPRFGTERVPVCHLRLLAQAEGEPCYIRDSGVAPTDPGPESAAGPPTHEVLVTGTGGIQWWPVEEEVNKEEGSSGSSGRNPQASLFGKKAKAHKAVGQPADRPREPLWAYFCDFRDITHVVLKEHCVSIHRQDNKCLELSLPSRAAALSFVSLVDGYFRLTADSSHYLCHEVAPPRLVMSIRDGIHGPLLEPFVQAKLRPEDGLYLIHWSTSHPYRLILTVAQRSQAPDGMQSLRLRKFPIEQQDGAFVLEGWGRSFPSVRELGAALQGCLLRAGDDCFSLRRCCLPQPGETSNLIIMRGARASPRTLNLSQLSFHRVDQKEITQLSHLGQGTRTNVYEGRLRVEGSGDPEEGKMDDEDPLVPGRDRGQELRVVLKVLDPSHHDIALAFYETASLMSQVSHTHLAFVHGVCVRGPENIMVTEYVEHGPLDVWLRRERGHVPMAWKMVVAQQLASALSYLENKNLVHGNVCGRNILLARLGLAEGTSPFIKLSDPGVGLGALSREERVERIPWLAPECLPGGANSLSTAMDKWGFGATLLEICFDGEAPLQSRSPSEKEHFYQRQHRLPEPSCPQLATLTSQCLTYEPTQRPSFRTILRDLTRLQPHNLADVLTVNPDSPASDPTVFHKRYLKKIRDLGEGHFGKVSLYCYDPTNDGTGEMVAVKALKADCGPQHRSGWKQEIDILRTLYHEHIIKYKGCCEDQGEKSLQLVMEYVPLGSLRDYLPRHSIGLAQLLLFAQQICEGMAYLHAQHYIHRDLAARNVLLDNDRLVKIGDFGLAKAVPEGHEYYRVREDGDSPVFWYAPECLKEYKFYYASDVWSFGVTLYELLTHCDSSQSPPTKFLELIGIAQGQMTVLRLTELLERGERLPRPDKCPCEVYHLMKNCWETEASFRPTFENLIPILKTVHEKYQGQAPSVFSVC
Sequence of JAK1 (P23458 whole entry): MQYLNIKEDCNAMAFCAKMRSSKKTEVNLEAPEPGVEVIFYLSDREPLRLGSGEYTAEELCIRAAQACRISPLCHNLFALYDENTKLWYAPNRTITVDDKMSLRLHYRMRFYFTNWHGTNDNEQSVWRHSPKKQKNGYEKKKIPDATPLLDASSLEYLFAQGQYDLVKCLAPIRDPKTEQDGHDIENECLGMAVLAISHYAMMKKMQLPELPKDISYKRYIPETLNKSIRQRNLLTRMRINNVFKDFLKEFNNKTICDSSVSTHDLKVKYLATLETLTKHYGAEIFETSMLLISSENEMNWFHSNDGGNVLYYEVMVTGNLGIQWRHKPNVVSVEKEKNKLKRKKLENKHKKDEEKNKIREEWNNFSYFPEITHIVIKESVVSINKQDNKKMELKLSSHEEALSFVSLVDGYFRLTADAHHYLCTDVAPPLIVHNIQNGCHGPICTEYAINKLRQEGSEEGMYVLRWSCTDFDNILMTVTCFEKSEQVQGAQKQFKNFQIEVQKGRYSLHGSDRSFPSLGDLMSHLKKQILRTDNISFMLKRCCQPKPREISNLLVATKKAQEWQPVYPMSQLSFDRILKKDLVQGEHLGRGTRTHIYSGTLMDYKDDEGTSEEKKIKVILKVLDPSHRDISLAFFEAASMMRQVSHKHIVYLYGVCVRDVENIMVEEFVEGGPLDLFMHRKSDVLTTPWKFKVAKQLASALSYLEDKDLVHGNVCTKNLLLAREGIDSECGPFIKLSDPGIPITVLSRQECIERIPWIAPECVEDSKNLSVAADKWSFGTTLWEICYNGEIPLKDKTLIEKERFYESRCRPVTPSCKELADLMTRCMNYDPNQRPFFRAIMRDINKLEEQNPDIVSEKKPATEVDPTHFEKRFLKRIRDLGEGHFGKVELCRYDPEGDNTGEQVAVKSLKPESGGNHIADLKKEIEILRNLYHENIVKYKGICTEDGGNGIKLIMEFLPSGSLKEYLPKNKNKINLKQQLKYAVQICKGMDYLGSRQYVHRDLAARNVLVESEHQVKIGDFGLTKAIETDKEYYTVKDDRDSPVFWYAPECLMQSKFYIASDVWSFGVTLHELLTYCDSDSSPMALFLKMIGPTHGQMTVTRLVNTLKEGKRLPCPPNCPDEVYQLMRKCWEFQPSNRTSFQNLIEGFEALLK

Row | SMILES | Tall-1 (pIC50) [1] | JAK 3 (pKi) [2] | JAK3 (pKi)-JAK1 (pKi) [2] | JAK 2 (pKi) [3] | Kp [4] | Tyk 2 (pKi) [5] | JAK 1 (pKi) [6] | Caco Kp [7]
1 | C=CC(=O)N1CC(CCn2c(=O)ccc3cnc(Nc4cnn(C)c4)nc32)C1 [Example 15] | B (B represents a pC50 value between 6.7 (included) and 7.5 (IC50 between 200 nM and 32 nM)) | B (B represents pKi value between 9 and 10 (Ki between 1 nM and 0.1 nM)) | A (A represents a value of 3 or above) | E (E represents a pKi value of 7 or below (Ki of 100 nM or above)) | > 100 | E (E represents a pKi value of 7 or below (Ki of 100 nM or above)) | E (E represents a pKi value of 7 or below (Ki of 100 nM or above)) | B (B represents a value between 5×10^−6 and 10×10^−6 cm/sec)
2 | C=CC(=O)N1CC(CCn2c(=O)ccc3cnc(Nc4cnn(CCOC(C)C)c4)nc32)C1 [Example 24] | B (B represents a pC50 value between 6.7 (included) and 7.5 (IC50 between 200 nM and 32 nM)) | B (B represents pKi value between 9 and 10 (Ki between 1 nM and 0.1 nM)) | A (A represents a value of 3 or above) | E (E represents a pKi value of 7 or below (Ki of 100 nM or above)) | > 100 | E (E represents a pKi value of 7 or below (Ki of 100 nM or above)) | E (E represents a pKi value of 7 or below (Ki of 100 nM or above)) | B (B represents a value between 5×10^−6 and 10×10^−6 cm/sec)
3 | C=CC(=O)N1CC(CCn2c(=O)ccc3cnc(Nc4ccc(N5CCSCC5)cc4)nc32)C1 [Example 26] | B (B represents a pC50 value between 6.7 (included) and 7.5 (IC50 between 200 nM and 32 nM)) | B (B represents pKi value between 9 and 10 (Ki between 1 nM and 0.1 nM)) | A (A represents a value of 3 or above) | E (E represents a pKi value of 7 or below (Ki of 100 nM or above)) | > 1000 | E (E represents a pKi value of 7 or below (Ki of 100 nM or above)) | E (E represents a pKi value of 7 or below (Ki of 100 nM or above)) | C (C represents a value between 10×10^−6 and 30×10^−6 cm/sec)
4 | C=CC(=O)N1CC(CCn2c(=O)ccc3cnc(Nc4cccc(CN5CCOCC5)c4)nc32)C1 [Example 27] | B (B represents a pC50 value between 6.7 (included) and 7.5 (IC50 between 200 nM and 32 nM)) | B (B represents pKi value between 9 and 10 (Ki between 1 nM and 0.1 nM)) | A (A represents a value of 3 or above) | E (E represents a pKi value of 7 or below (Ki of 100 nM or above)) | > 100 | E (E represents a pKi value of 7 or below (Ki of 100 nM or above)) | E (E represents a pKi value of 7 or below (Ki of 100 nM or above)) | C (C represents a value between 10×10^−6 and 30×10^−6 cm/sec)
5 | C=CC(=O)N1CC(CCn2c(=O)ccc3cnc(Nc4cccc(N5CCN(C)CC5)c4)nc32)C1 [Example 31] | B (B represents a pC50 value between 6.7 (included) and 7.5 (IC50 between 200 nM and 32 nM)) | B (B represents pKi value between 9 and 10 (Ki between 1 nM and 0.1 nM)) | A (A represents a value of 3 or above) | E (E represents a pKi value of 7 or below (Ki of 100 nM or above)) | > 50 | E (E represents a pKi value of 7 or below (Ki of 100 nM or above)) | E (E represents a pKi value of 7 or below (Ki of 100 nM or above)) | A (A represents a value below 5×10^−6 cm/sec)
6 | C=CC(=O)N1CCN(CCn2c(=O)ccc3cnc(Nc4ccc(N5CCSCC5)cc4)nc32)CC1 [Example 38] | B (B represents a pC50 value between 6.7 (included) and 7.5 (IC50 between 200 nM and 32 nM)) | B (B represents pKi value between 9 and 10 (Ki between 1 nM and 0.1 nM)) | A (A represents a value of 3 or above) | E (E represents a pKi value of 7 or below (Ki of 100 nM or above)) | > 1000 | E (E represents a pKi value of 7 or below (Ki of 100 nM or above)) | E (E represents a pKi value of 7 or below (Ki of 100 nM or above)) | C (C represents a value between 10×10^−6 and 30×10^−6 cm/sec)
7 | C=CC(=O)N1CC(CCn2c(=O)ccc3cnc(Nc4cccc(CN5CCN(C)CC5)c4)nc32)C1 [Example 52] | B (B represents a pC50 value between 6.7 (included) and 7.5 (IC50 between 200 nM and 32 nM)) | B (B represents pKi value between 9 and 10 (Ki between 1 nM and 0.1 nM)) | A (A represents a value of 3 or above) | E (E represents a pKi value of 7 or below (Ki of 100 nM or above)) | > 100 | E (E represents a pKi value of 7 or below (Ki of 100 nM or above)) | E (E represents a pKi value of 7 or below (Ki of 100 nM or above)) | A (A represents a value below 5×10^−6 cm/sec)
8 | C=CC(=O)N1CC(CCn2c(=O)ccc3cnc(Nc4ccc(C5=CCN(C)CC5)cc4)nc32)C1 [Example 74] | B (B represents a pC50 value between 6.7 (included) and 7.5 (IC50 between 200 nM and 32 nM)) | B (B represents pKi value between 9 and 10 (Ki between 1 nM and 0.1 nM)) | A (A represents a value of 3 or above) | E (E represents a pKi value of 7 or below (Ki of 100 nM or above)) | > 100 | E (E represents a pKi value of 7 or below (Ki of 100 nM or above)) | E (E represents a pKi value of 7 or below (Ki of 100 nM or above)) | A (A represents a value below 5×10^−6 cm/sec)
9 | C=CC(=O)N1CC(CCn2c(=O)ccc3cnc(Nc4ccc(N5CCN(S(=O)(=O)CCOC)CC5)cc4)nc32)C1 [Example 76] | B (B represents a pC50 value between 6.7 (included) and 7.5 (IC50 between 200 nM and 32 nM)) | B (B represents pKi value between 9 and 10 (Ki between 1 nM and 0.1 nM)) | A (A represents a value of 3 or above) | E (E represents a pKi value of 7 or below (Ki of 100 nM or above)) | > 14 | E (E represents a pKi value of 7 or below (Ki of 100 nM or above)) | E (E represents a pKi value of 7 or below (Ki of 100 nM or above)) | B (B represents a value between 5×10^−6 and 10×10^−6 cm/sec)
